Each structure is given as a SMILES string.

The target of the assay is Cyclin-A2/Cyclin-dependent kinase 2 (Homo sapiens, UniProt P24941). As to the kind of experiment: Biochemical Assay. The source says: CDK2 and CDK5 IC50 data were attained through the use of Invitrogen™ commercial assays. The method for CDK2 (assay ID: 315, kinase|Z'-LYTE™|CDK2/Cyclin A|Km app) used a 10-point titration. The method for CDK5 (assay ID: 318, kinase|Z'-LYTE™|CDK5/p25|Km app) used a 10-point titration. All the bifunctional compounds showed potent biochemical inhibition on both CDK2/5 enzymes.
Usually IC50 stands for the point on the concentration scale where inhibition reaches its midpoint. Read a high IC50 as weaker potency. `Cc1ncsc1-c1ccc([C@H](C)NC(=O)[C@@H]2C[C@@H](O)CN2C(=O)[C@@H](NC(=O)CCOCCOCCC(=O)NCCS(=O)(=O)N2CCC(Nc3ncc(Br)c(Nc4cccc(F)c4C(N)=O)n3)CC2)C(C)(C)C)cc1` [US12466809, Compound 11] registered an IC50 of 6.8 nM. `Cc1ncsc1-c1ccc([C@H](C)NC(=O)[C@@H]2C[C@@H](O)CN2C(=O)[C@@H](NC(=O)CCC(=O)NCCS(=O)(=O)N2CCC(Nc3ncc(Br)c(Nc4cccc(F)c4C(N)=O)n3)CC2)C(C)(C)C)cc1` [US12466809, Compound 12] displayed an IC50 of 5.3 nM.

Turning to `NC(=O)c1c(F)cccc1Nc1nc(NC2CCN(S(=O)(=O)CCNC(=O)CCC(=O)NCCCCCNc3cccc4c3C(=O)N(C3CCC(=O)NC3=O)C4=O)CC2)ncc1Br` (stereo unspecified) [US12466809, Compound 13], the IC50 came to 3.8 nM. Regarding `NC(=O)c1c(F)cccc1Nc1nc(NC2CCN(S(=O)(=O)CCNC(=O)CCCCCCCCC#Cc3cccc4c3CN(C3CCC(=O)NC3=O)C4=O)CC2)ncc1Br` (stereo unspecified) [US12466809, Compound 14], half-maximal inhibition (IC50) was put at 57.2 nM.

`NC(=O)c1c(F)cccc1Nc1nc(NC2CCN(S(=O)(=O)CCNC(=O)CCCCCCCCCCc3cccc4c3CN(C3CCC(=O)NC3=O)C4=O)CC2)ncc1Br` (stereo unspecified) [US12466809, Compound 15] returned an IC50 of 50 nM. As to `O=C(CCCCCCCCC#Cc1cccc2c1CN(C1CCC(=O)NC1=O)C2=O)NCCS(=O)(=O)N1CCC(Nc2ncc(Br)c(Nc3cccc4c3OCO4)n2)CC1` (stereo unspecified) [US12466809, Compound 16], the IC50 was greater than 370 nM.

Source of the values: BindingDB's records for patent US12466809 (Dana-Farber Cancer Institute, 2025).
